Laboratory results published in patent US9371324B2, “Substituted pyrido[3′,4′:4,5]pyrrolo[1,2,3-de]quinoxalines for the treatment of nervous system disorders” (INTRA-CELLULAR THERAPIES, INC., priority 2010, dated 2016).
Where two headings read alike, the source gives them in different places.

Assays:
[1] = Single dose oral bioavailability and pharmacokinetic study in Sprague Dawley rats; assay type: in vivo, Sprague Dawley rat; settings: for AUC(0-t) / Cmax / Tmax / half-life: Sprague Dawley (Crl:CD(SD)BR), rat, plasma, mean, after single oral 30 mg/kg of Example 1, label = analyte; for half-life: read-out: t½ (converted); for Course of plasma concentration over time: rats, after oral Example 1, 30 mg/kg, over 8 hours
Experimental: Animals are Used for the Study:
• Strain/Species: Sprague Dawley (Crl:CD®(SD)BR) Rat • Sex: Male and Female • Age at Receipt: 7-8 weeks • Weight Range: 225-300 g • Number of Animals on Study: 3 Males and 3 Females Preparation of Dosage Formulation
The suspension is prepared by placing the required amount of methylcellulose in deionized water in a glass container. The suspension are kept stirring with a magnetic stirrer until completion of daily dosing. The dose suspensions are prepared on the day of dosing for each test article group.
A total of 3 male and 3 female rats are dosed at 30 mg/kg. Blood samples are collected at 0.30 min, 1, 4 and 8 h after dosing. Plasma samples are analyzed to determine plasma concentrations of the Compound of Example 1, the Compound of Formula Q wherein X is —N(CH3)— and Y is —C(═O), and the Compound of Formula Q wherein X is —N(H)— and Y is —C(═O). The pharmacokinetic profile is determined using WinNonlin.
Animals are anesthetized with isoflurane, and whole blood (˜0.5 mL/time point) is collected from the orbital sinus utilizing a glass capillary tube on the first day of treatment at the following times: 0.30 min, 1, 4 and 8 h after dosing. Whole blood (˜0.5 mL) is collected into chilled plastic tubes containing sodium heparin as supplied by the manufacturer. The blood collection tubes are mixed several times by manual inversion or gentle vortexing and stored on wet ice until centrifugation. The blood is centrifuged (˜2700 g, ˜10 min, ˜5° C.). Plasma is transferred with disposable plastic pipettes to plastic vials and stored at approximately −70° C. until analyzed.

[2] = biological target: T1, serotonin reuptake transport (SERT) (Homo sapiens, UniProt P31645); assay: Inhibition of serotonin uptake in a human platelet assay using tritiated serotonin; assay type: cell-based
T1 construct: endogenous in cells; host or cells: human platelets

[3] = Hydrolysis of Example 4 in EDTA-containing rat whole blood; assay type: in vitro ADME; settings: for Concentration: Example 4 incubated in rat whole blood at 37 degrees, HPLC-MS
dopamine receptors = assay: Step-down latency test; assay type: in vivo; settings: mice; oral; tests at 120, 180, 240 and 360 minutes; FIG. 2
Experimental: Drugs that antagonize dopamine receptors in the brain slow motor behavior and can induce a cataleptic state. This activity can be assessed in mice using a simple step down latency test. In this test, mice are held by the tail, and the rodents forepaws are placed on a rod and its hindpaws placed on the bench top. The time for forepaws to step down from the rod is then measured. A maximum of 2 min is allowed at which time the animal is taken away from the rod and returned to the home cage. The compound of Example 1 or haloperidol (used as a positive control) is administered orally 120 minutes before the first test. Step down latency tests are conducted at 120, 180, 240, and 360 minutes after the administration of the compound of Example 1 or haloperidol. After each test mice are returned to their cages. The results are show in FIG. 2.

5-HT2 receptor = assay: DOI-induced head twitch test in mice; assay type: in vivo; settings: oral
Excerpt: When administered to mice, it produces a behavioral profile associated with frequent head twitches. The frequency of these head twitches during a predetermined period of time can be taken as an estimate of 5-HT2 receptor agonism in the brain. Conversely, this behavioral assay can be used to determine 5-HT2 receptor antagonism in the brain by administering the DOI with or without an antagonist and recording the reduction in DOI-induced head twitches after the administration of the antagonist.
The method of Darmani et al., Pharmacol Biochem Behav. (1990) 36:901-906 (the contents of which are incorporated by reference in their entirety) is used with some modifications. (±)-DOI HCl is injected subcutaneously and the mice are immediately placed in a conventional plastic cage. The number of head twitches is counted during 6 min, beginning 1 min after DOI administration. The compound of Example 1 is administered orally 0.5 hr before the injection of DOI.

SERT = SERT (Homo sapiens, UniProt P31645); assay: biochemical
Chain of SERT (P31645 whole entry): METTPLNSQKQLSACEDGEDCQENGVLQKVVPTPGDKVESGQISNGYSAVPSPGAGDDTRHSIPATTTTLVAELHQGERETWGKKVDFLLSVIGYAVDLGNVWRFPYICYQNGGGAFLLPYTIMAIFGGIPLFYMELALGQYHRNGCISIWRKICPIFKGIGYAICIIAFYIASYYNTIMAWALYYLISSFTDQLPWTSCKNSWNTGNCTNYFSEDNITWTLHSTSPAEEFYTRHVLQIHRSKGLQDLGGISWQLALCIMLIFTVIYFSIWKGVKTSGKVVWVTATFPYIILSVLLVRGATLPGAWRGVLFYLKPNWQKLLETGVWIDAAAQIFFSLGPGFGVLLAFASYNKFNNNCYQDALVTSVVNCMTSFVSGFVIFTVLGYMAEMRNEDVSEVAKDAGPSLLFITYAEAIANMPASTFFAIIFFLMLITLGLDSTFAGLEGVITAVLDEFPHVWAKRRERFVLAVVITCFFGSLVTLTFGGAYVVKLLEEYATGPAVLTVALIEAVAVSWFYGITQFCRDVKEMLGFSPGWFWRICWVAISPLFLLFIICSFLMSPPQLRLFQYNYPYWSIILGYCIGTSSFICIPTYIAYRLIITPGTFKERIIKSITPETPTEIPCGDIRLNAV

T1 sequence (P31645 whole entry): as above

| Structure (SMILES) | AUC(0-t) ([1]; female rats) [ng·h/mL] | Cmax ([1]; female rats) [ng/mL] | Tmax ([1]; female rats) [h] | half-life ([1]; female rats) [h] | AUC(0-t) ([1]; male rats) [ng·h/mL] | Cmax ([1]; male rats) [ng/mL] | Tmax ([1]; male rats) [h] | half-life ([1]; male rats) [h] | Course of plasma concentration over time [1] | Concentration ([3]; 5 min) [µM] | Concentration ([3]; 10 min) [µM] | Concentration ([3]; 15 min) [µM] | Concentration ([3]; 30 min) [µM] | Concentration ([3]; 60 min) [µM] | Concentration ([3]; 90 min) [µM] | also measured |
| --- | --- | --- | --- | --- | --- | --- | --- | --- | --- | --- | --- | --- | --- | --- | --- | --- |
| CN1CCN2c3c(cccc31)[C@@H]1CN(CCCC(=O)c3ccc(F)cc3)CC[C@@H]12 | 71 | 11.8 | 1 | 23.4 | 54.5 | 4.85 | 0.75 | 12.1 | maintained over 8 hours |  |  |  |  |  |  |  |
| O=C(CCCN1CC[C@H]2[C@@H](C1)c1cccc3c1N2CCN3)c1ccc(F)cc1 | 89.7 | 12.8 | 5.33 |  | 37.4 | 5.84 | 1 | 17.8 | maintained over 8 hours |  |  |  |  |  |  |  |
| CN1CCN2c3c(cccc31)[C@@H]1CN(CCCC(O)c3ccc(F)cc3)CC[C@@H]12 (stereo partly shown) [Example 1] | 767 | 144 | 3.33 | 11.6 | 421 | 91.6 | 0.83 | 5.83 | generally decreases over time | 8.43 | 12.02 | 13.42 | 19.21 | 24.66 | 33.31 | Ki [2]: 1500 nM; SERT inhibitory activity ([2]; imipramine as reference, compared with the corresponding keto compound of Formula Q): potent SERT inhibitory activity; Effect on step down latency (dopamine receptors): significantly and dose dependently increased step down latency; IC50 for reducing DOI-induced head twitches (5-HT2 receptor; 0.5 hr before DOI, twitches counted during 6 min): 0.31 mg/kg; Effect on DOI-induced head twitches (5-HT2 receptor; before DOI, FIG. 1): significantly and dose dependently reduced head twitches; Ki (SERT): 71 nM |
| CCCC(=O)OC(CCCN1CC[C@H]2[C@@H](C1)c1cccc3c1N2CCN3C)c1ccc(F)cc1 (stereo partly shown) [Example 4] |  |  |  |  |  |  |  |  |  | 24.92 | 18.51 | 9.21 | 7.06 | 2.74 | 1.75 | Concentration ([3]; 0 min): 52.84 µM; Cleavage of the ester in blood ([3]; rat whole blood, during 90 minutes): steadily cleaved back to the compound of Example 1 |
